Laboratory results reported in article PMC11802874, “The hypolipidemic effect of MI-883, the combined CAR agonist/ PXR antagonist, in diet-induced hypercholesterolemia model” (Nature Communications, 2025).
Where “and” joins values, the source holds several entries; their conditions need not be identical. Equal values may be shown once.

Columns and labels:
GRα = GRα (Homo sapiens, UniProt P04150); experiment: Luciferase reporter gene assay GRα, HepG2; details: ligand: Dexamethasone 100 nM
Excerpt: (§1) Gal4-LBD constructs of tested nuclear receptors have been used together with pGL4.31[luc2P/GAL4UAS/Hygro] luciferase reporter construct and pRL-TK Renilla expression vector (both from Promega, Hercules, USA) in HepG2 cells transfected with Lipofectamine 2000 or 3000 reagents. For GRα and FXR receptors, full-length expression vectors have been used with pGRE-luc or pFXRE-luc luciferase constructs. For the aryl hydrocarbon receptor (AhR), p1A1-luc construct was used with only pRL-TK vector for transfection normalization. A dual reporter assay (Promega, Hercules, USA) was used to analyze both firefly and Renilla luciferase activities.
(§2) Gal4-LBD constructs of tested nuclear receptors have been used together with pGL5-luc luciferase reporter construct and pRL-TK Renilla expression vector in HepG2 cells transfected with Lipofectamine 2000 or 3000 reagents. For GRα and FXR receptors, full-length expression vectors have been used with pGRE-luc or pFXRE-luc luciferase constructs. For the aryl hydrocarbon receptor (AhR), p1A1-luc construct was used with only pRL-TK vector for transfection normalization. […] Bars represent means±S.D. (n=3).

[1] = test system: PXR-responsive CYP3A4(pER6)-luc construct; experiment: CYP3A4(pER6)-luc luciferase reporter assay in HepG2 cells
hERG potassium channel = hERG potassium channel (Homo sapiens, UniProt Q12809); experiment: Thallium flux FLIPR-based hERG assay; format: cell-based
Sequence of hERG potassium channel (Q12809 whole entry): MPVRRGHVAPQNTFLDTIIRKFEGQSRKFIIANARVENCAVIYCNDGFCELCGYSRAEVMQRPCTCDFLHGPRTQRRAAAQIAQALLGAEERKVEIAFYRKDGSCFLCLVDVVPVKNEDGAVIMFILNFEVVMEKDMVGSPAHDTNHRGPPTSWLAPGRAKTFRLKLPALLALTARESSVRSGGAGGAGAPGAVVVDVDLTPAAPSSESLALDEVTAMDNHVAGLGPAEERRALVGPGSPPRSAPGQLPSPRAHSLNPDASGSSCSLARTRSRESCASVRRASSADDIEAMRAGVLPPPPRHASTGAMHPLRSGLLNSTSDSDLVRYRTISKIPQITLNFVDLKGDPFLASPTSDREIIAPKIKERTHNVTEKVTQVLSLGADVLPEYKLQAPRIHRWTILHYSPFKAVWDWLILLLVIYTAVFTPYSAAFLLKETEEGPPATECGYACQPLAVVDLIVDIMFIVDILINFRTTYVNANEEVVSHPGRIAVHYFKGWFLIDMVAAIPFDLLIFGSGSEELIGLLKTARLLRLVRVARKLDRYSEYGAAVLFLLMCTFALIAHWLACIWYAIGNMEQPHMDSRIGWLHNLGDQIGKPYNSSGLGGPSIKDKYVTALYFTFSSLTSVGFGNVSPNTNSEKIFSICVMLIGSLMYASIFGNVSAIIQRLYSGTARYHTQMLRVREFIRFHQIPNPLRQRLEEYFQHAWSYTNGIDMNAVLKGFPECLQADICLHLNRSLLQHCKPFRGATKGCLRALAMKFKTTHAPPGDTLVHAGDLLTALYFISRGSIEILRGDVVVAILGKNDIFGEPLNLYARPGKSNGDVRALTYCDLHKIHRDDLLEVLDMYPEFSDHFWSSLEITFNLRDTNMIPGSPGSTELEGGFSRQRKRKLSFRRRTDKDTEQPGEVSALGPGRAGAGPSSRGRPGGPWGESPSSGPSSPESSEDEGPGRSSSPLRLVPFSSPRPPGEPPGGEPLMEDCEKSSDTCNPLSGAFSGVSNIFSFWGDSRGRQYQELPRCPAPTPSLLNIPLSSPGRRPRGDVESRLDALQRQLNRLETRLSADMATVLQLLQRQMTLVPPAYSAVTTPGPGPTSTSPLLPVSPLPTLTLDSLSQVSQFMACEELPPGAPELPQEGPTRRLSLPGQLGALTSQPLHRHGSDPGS
Excerpt: Thallium flux FLIPR-based assay for the identification of hERG potassium channel inhibition

[2] = test system: humanized PXR-CAR-CYP3A4/3A7 mice, liver; experiment: Liver enzymatic TG measurement (HFD study); format: in vivo, mouse
Experimental: The liver tissue (10 mg) was homogenized using a pre-cooled steel bead in 225 μL of methanol in TissueLyser II (30 Hz, 2 × 30 s) (Qiagen, Hilden, Germany). This was followed by the addition of 750 μL of ice-cold methyl tert-butyl ether. Samples were vortexed and incubated for 1 h on a rotating wheel. Next, 188 μL of LC/MS-grade water was added and, after vortexing, the mixture underwent a short incubation and centrifugation (14,000 × g, 4 °C, 3 min). The upper organic phase containing lipids was collected and 300 μL was transferred to a vial containing 40 μL of 10% Triton X-100 in methanol, followed by evaporation on a heating block with shaking function (300 rpm, 45 °C). LC/MS-grade water (100 μL) was added to the evaporated sample and the tube was vortexed (1000 rpm, 35 °C). The samples were measured using a TG assay (Beckman Coulter, Brea, CA, USA) and a glycerol assay (Randox laboratories, Crumlin, UK) on an AU480 biochemistry analyzer (Beckman Coulter, Brea, CA, USA). The glycerol value was subtracted from the TG value. Livers from seven (n = 7) vehicle-treated controls and ten (n = 10) MI-883-treated animals were used.

[3] = test system: FXR, LXRα, LXRβ, THα, GRα, PPARα, PPARδ/β, PPARγ, AhR, VD, ERα, ERβ, mouse Car; experiment: Nuclear receptor luciferase reporter panel (statements on the whole panel); format: cell-based
Excerpt: (see Supplementary Chapter 7).
Thank you for the insightful question and comment. We have corrected the sentence to read:
Thank you for the idea. Yes, we conducted luciferase reporter assays in antagonistic "mode" for several nuclear receptors using their prototype ligands in the revised manuscript (Figure R7).
This information is included in the Supplementary Information.
Treatment with 5 and 10 µM
(1 picture or pasted object on this page, not shown here) […]
nM dexamethasone, 10 µM GW3965 (LXRα agonist), and 10 µM estradiol. Data are presented as a […]

human CAR variant 3 = target: T1, human CAR variant 3 (Homo sapiens, UniProt Q14994, DEL233-236); experiment: CAR3 luciferase reporter assay (CYP2B6-luc) in HepG2 cells; format: cell-based
T1 construct: host or cells: HepG2
T1 sequence (Q14994 with tags, fused parts or gaps isoform Q14994-8 DEL233-236): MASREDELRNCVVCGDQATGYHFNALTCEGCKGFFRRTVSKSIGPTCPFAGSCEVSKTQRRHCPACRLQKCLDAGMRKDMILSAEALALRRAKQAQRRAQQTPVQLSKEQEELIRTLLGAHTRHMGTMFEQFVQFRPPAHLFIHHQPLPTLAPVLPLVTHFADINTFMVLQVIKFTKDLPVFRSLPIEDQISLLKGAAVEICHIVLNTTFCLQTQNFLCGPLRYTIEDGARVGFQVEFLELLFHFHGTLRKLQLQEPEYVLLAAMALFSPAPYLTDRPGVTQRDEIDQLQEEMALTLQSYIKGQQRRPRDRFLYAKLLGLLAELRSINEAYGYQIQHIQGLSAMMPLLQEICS
T1 sequence (P19793 1-462 partner): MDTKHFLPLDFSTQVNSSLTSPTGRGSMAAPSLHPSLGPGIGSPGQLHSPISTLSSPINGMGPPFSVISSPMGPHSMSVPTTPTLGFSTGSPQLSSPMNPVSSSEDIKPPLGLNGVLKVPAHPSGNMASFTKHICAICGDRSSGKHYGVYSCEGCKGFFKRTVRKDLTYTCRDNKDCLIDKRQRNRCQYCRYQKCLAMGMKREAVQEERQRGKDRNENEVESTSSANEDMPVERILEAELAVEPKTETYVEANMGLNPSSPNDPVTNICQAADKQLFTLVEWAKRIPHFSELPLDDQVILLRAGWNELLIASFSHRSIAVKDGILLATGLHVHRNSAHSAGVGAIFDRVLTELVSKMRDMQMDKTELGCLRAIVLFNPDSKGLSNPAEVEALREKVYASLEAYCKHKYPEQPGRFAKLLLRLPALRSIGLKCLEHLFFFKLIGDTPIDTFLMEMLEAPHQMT
Experimental: CAR3 luciferase reporter assay (with CYP2B6-luc) was performed in human hepatocellular carcinoma HepG2 cells as we described[19] For the CAR3 assay (Fig. 1d), a CYP2B6-luc reporter plasmid (originally entitled B-1.6k/PB/XREM) was kindly donated by Dr. Hongbing Wang (University of Maryland School of Pharmacy, Baltimore, MD, USA). All expression vectors are described in Supplementary, Chapter 4).
Cells were treated for 24 h with MI-883 in a range of concentration from 0.1 nM to 30 µM (n = 3). The half maximal effective concentration (EC50) to activate CAR or inhibit PXR (IC50) in the assays was calculated from at least eight points of the dose-response curves using the GraphPad Prism software.

Human recombinant CYP3A4 = target: T2, Human recombinant CYP3A4 (Homo sapiens, UniProt P08684); experiment: CYP450-Glo CYP3A4 enzymatic activity assay; format: biochemical; details: for Inhibition assays, CYP3A4 activity (replicates): log[Agonist]
T2 construct: purchased Promega; host or cells: baculovirus-infected insect cells
T2 sequence (P08684 whole entry): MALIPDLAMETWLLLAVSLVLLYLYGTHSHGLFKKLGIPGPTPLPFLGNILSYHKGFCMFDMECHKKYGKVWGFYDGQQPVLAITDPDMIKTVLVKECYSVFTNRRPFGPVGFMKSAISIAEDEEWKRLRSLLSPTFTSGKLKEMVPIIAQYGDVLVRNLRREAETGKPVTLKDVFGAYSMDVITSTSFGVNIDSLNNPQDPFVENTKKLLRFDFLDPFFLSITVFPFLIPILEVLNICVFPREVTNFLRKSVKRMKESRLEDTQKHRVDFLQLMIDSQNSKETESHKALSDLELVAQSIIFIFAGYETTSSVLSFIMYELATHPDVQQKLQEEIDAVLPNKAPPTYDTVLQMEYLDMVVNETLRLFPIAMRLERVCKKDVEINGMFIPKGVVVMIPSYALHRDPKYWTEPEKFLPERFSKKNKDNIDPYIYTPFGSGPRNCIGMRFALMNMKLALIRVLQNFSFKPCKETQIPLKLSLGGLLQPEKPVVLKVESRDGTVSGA
Excerpt: Data are presented as means±S.D. from three independent measurements.

ERβ = ERβ (Homo sapiens, UniProt Q92731); experiment: Luciferase reporter gene assay ERβ, HepG2
Sequence of ERβ (Q92731 264-498 limits assumed, species assumed): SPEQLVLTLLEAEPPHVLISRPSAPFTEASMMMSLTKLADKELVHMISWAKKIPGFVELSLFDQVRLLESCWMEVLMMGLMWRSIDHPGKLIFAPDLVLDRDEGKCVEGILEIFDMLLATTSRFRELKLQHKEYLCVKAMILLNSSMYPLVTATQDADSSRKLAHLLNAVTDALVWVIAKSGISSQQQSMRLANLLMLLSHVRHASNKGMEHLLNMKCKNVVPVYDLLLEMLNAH
Excerpt: as §1, §2

Sequence of GRα (P04150 whole entry): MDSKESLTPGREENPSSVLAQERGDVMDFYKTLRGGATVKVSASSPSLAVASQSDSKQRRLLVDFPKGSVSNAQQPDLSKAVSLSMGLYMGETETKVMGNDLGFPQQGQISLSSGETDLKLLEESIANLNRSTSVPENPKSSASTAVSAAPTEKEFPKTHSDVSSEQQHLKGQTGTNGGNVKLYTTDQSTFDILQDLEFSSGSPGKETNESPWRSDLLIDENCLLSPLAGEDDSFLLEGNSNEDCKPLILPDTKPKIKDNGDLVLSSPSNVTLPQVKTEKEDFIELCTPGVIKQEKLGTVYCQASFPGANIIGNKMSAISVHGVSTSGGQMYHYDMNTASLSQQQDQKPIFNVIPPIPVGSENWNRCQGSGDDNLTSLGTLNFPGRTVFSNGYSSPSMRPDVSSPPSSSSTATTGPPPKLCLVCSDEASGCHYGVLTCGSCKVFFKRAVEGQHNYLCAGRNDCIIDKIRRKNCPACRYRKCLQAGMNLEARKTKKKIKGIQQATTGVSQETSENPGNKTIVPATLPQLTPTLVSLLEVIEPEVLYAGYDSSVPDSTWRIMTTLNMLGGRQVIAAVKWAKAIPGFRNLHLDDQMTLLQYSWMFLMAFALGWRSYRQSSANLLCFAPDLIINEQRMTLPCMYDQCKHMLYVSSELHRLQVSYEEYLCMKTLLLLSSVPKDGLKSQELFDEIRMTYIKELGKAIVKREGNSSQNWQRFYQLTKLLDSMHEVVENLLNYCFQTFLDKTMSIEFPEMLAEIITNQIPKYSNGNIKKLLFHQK

NC(=O)c1cc(Cn2cc(-c3c(-c4ccc(Cl)cc4)nc4cc(F)ccn34)nn2)ccc1Cl [MI-883, 2-chloro-5-((4-(2-(4-chlorophenyl)-7-fluoroimidazo[1,2-a]pyridin-3-yl)-1H-1,2,3-triazol-1-yl)methyl)benzamide]
NRs assays: GRa (relative to ctrl, replicates) (GRα): 0.97 (2×) and 1.03
pER6-luc luciferase gene reporter assay (Fig1 m), replicates ([1]; Rif 1μM + MI-883 30μM): 0.18 and 0.17 and 0.185
pER6-luc luciferase gene reporter assay (Fig1 m), replicates ([1]; SR12813 1μM + MI-883 30μM): 0.21 and 0.22 and 0.19
pER6-luc luciferase gene reporter assay (Fig1 m), replicates ([1]; single agent 10μM): 0.17 and 0.18
pER6-luc luciferase gene reporter assay (Fig1 m), replicates ([1]; single agent 30μM): 0.21 and 0.19
hERG IC50 (hERG potassium channel): could not be defined
hERG assay, inhibition of hERG potassium channel activity (hERG potassium channel): no significant inhibition up to 100 µM
TG accumulation in male livers, enzymatic assay [2]: no significant impact
interactions with other tested nuclear receptors (agonist mode) ([3]; 10 µM, 24 h, HepG2): no other interactions
inhibition of other nuclear receptors, antagonistic mode (FXR, THα, AhR, PPARα, PPARγ, GR, LXRα) ([3]; 5 and 10 μM with prototype ligands): not inhibit the other nuclear receptors
CAR3 variant activation (Fig. 1d), replicates (human CAR variant 3; concentration 0.01 (unit not given), HepG2, 24 h): 1
CAR3 variant activation (Fig. 1d), replicates (human CAR variant 3; concentration 0.1 (unit not given)): 1.35 and 1.4 and 2.3
CAR3 variant activation (Fig. 1d), replicates (human CAR variant 3; concentration 1 (unit not given)): 4.55 and 1.6 and 1.1
CAR3 variant activation (Fig. 1d), replicates (human CAR variant 3; concentration 10 (unit not given)): 4.3 and 13.5 and 6.2
CAR3 variant activation (Fig. 1d), replicates (human CAR variant 3; concentration 30 (unit not given)): 10.05 and 10.1 and 9.78
inhibition of CYP3A4 activity (Human recombinant CYP3A4): weak inhibitor
Inhibition assays, CYP3A4 activity (replicates) (Human recombinant CYP3A4; M 0): 106 and 134
Inhibition assays, CYP3A4 activity (replicates) (Human recombinant CYP3A4; M 0.5): 69 and 79 and 81
Inhibition assays, CYP3A4 activity (replicates) (Human recombinant CYP3A4; M 1): 66 and 67 and 61
Inhibition assays, CYP3A4 activity (replicates) (Human recombinant CYP3A4; M -0.5): 128 and 118 and 132
Inhibition assays, CYP3A4 activity (replicates) (Human recombinant CYP3A4; M -1): 126 and 125 and 123
Inhibition assays, CYP3A4 activity (replicates) (Human recombinant CYP3A4; M -2): 89 and 124
Inhibition assays, CYP3A4 activity (replicates) (Human recombinant CYP3A4; M -2.5): 100
Inhibition assays, CYP3A4 activity (replicates) (Human recombinant CYP3A4; M -3): 100
Inhibition assays, CYP3A4 activity (replicates) (Human recombinant CYP3A4; M -3.5): 100
Inhibition assays, CYP3A4 activity (replicates) (Human recombinant CYP3A4; M -4): 100
Inhibition assays, CYP3A4 activity (replicates) (Human recombinant CYP3A4; M -4.5): 100
NRs assays: ERbeta (relative to ctrl, replicates) (ERβ): 0.84 and 0.86 and 0.88
